Reference: ChEMBL document CHEMBL1122894, “Preparation of 20-(hydroxymethyl)-4-methyl-4-aza-2-oxa-5 alpha-pregnan-3-one as an inhibitor of testosterone 5 alpha-reductase” (J Med Chem, 1985)

Experiments:
[1] = Compound was evaluated for in vitro inhibition of Testosterone 5 alpha-Reductase using substrate concentration 3 x 10e-7 M; set-up: species or system Rattus norvegicus
Rattus norvegicus = organism: Rattus norvegicus; experiment: Comparative activity against Testosterone 5 alpha-Reductase evaluated by setting Ki of 7-(2-Hydroxy-1-methyl-ethyl)-1,4a,6a-trimethyl-hexadecahydro-indeno[5,4-f]quinolin-2-one at 1

With `CCN(CC)C(=O)[C@H]1CC[C@H]2[C@@H]3CC[C@H]4N(C)C(=O)CC[C@]4(C)[C@H]3CC[C@]12C` the Ki [1] was 7.3 nM.
`CC(CO)C1CCC2C3CC[C@H]4N(C)C(=O)CCC4(C)C3CCC12C` (stereo not given in full) gave a Relative activity (Rattus norvegicus) of 1 and a Ki [1] of 3.8 nM.
`CC(CO)C1CCC2C3CC[C@H]4N(C)C(=O)OCC4(C)C3CCC12C` (stereo not given in full) showed a Ki [1] of 120 nM.
In the case of `CC(CO)C1CCC2C3CC[C@H]4N(C)C(=S)OCC4(C)C3CCC12C` (stereo not given in full), the Ki [1] is reported as 400 nM.
